We go through 1 compound from patent publication US8778882B2, “Agent for strengthening calcium containing tissue and use thereof” (Hayashibara Co., Ltd., priority 2002, dated 2014).

This assay deals with mouse pre-osteoblastic cell MC3T3-E1. Nature of the assay: Calcium deposition amount by Calcium C Test Wako. Format: cell-based. The source says:
Other flavonoid compounds than kaempferol or hesperetin were investigated where they have the same effect or not. Flavone (commercialized by Kanto Kagaku, Tokyo, Japan), apigenin (commercialized by Funakoshi, Co., Ltd., Tokyo, Japan), flavonol (commercialized by Tokyo Kasei Kogyo, Co., Ltd., Tokyo, Japan), quercetin (commercialized by Kanto Kagaku, Tokyo, Japan), kaempferol (commercialized by Funakoshi, Co., Ltd., Tokyo, Japan), rutin (commercialized by Kanto Kagaku, Tokyo, Japan), flavanone (commercialized by Kanto Kagaku, Tokyo, Japan), naringenin (commercialized by Ardrich Corporation), hesperetin (commercialized by Funakoshi, Co., Ltd., Tokyo, Japan), hesperidin (commercialized by Kanto Kagaku, Tokyo, Japan), chalcone (commercialized by Merk Corporation), fuloretin (commercialized by Sigma Corporation), catechin (commercialized by Sigma Corporation), ipriflavone (commercialized by Daito Corporation, Toyama, Japan), taxifolin (commercialized by Funakoshi, Co., Ltd., Tokyo, Japan), sulfuretin (commercialized by Funakoshi, Co., Ltd.; Tokyo, Japan), or cyanidin (commercialized by Funakoshi, Co., Ltd., Tokyo, Japan) was selected as test samples. Alkaline phosphatase activity was measured by the method of Experiment 1. Calcium deposition was measured by usual method using “Calcium C Test Wako” (commercialized by Wako Pure Chemical Industries, Osaka, Japan), briefly, cultured cells were washed with 1 ml of Dulbecco phosphate buffer saline three times after removing the medium. To the resultant was added 0.5 ml of 2N hydrochloric acid to resolve deposited calcium. To 5 μl of the resultant solution were added 0.5 ml of 0.88M monoethanolamine buffer (pH11) and 0.05 ml of 0.63 mM o-cresolphthalein complexone solution (binding to calcium ion to form chelate complex) containing 69 mM 8-quinolinol and mixed. Calcium amount per one hole of the plate was calculated by measuring absorbance 570 nm of the resultants and standardizing with a standard calcium solution. The judgement of alkaline phosphatase activity or calcium deposition amount of each sample was to calculate the relative activity or the relative calcium deposition amount to the negative control (only medium containing 0.2% (v/v) ethanol) and to compare each other.
The enhancement of calcium deposition between kaempferol and ipripfavone were compared. Test samples and their adding manner were same as Experiment 4. Calcium deposition amount was measured by usual method using “Calcium C Test Wako” (commercialized by Wako Pure Chemical Industries, Osaka, Japan); briefly, cultured cells were washed with 1 ml of Dulbecco phosphate buffer saline three times after removing the medium. To the resultant was added 0.5 ml of 2N hydrochloric acid to resolve deposited calcium. To 5 μl of the resolving solution were added 0.5 ml of 0.88M monoethanolamine buffer (pH11) and 0.05 ml of 0.63 mM o-cresolphthalein complexone solution (binding to calcium ion to form chelate complex) containing 69 mM 8-quinolinol and mixed, Calcium amount per one hole of the plate was calculated by measuring absorbance 570 nm of the resultants and standardizing with a standard calcium solution.
Kaempferol or hesperetin in combination with ipriflavone, or a kind of isoflavones, was investigated whether to enhance calcium deposition or not. Methods for preparing samples and culturing the cells were the same method described in Experiment 1 except culturing the cells for five days, Method for measuring calcium was the same method described in Experiment 3 and 5. Final ethanol concentration of the medium containing each sample was adjusted as same concentration.

Turning to `COc1ccc([C@@H]2CC(=O)c3c(O)cc(O)cc3O2)cc1O` [Hesperetin], the “enhancing calcium deposition in combination with ipriflavone versus single use (FIGS. 3 and 4)” value (5, 10 or 20 μM each, five days culture) was “a synergy effect was confirmed”. The “Relative Calcium Deposition Amount (%)” value (flavonoid comparison, Calcium C Test Wako, relative to 0.2% (v/v) ethanol negative control) came to 289%.
